# Target: T1, human leukocyte elastase (Homo sapiens, UniProt P08246)
# T1 sequence (P08246 30-267): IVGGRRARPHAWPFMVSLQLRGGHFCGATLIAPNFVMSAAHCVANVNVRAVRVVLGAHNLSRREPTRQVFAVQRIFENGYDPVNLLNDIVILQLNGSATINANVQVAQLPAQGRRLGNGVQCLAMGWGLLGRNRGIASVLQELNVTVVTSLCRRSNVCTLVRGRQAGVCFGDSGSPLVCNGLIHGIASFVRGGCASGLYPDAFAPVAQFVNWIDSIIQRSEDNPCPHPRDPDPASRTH
# Assay: human leukocyte elastase inhibition assay (progress curves, MeOSuc-Ala-Ala-Pro-Val-pNA substrate)
# Assay type: biochemical
# Settings: in vitro, pH 7.8 at 25° C., absorbance 410 nm, read-out: Ki, human leukocyte elastase inhibitory activity
# Protocol: The test compound (inhibitor) is dissolved in DMSO in a vial to produce an inhibitor stock solution which has a concentration in the range of 200-1000μM. The inhibitor stock solution is diluted (1:4, 1:16 and 1:64) into assay vials (vials 1, 2 and 3 respectively) containing 2.4 mL of buffer solution (50 mM N-[2-hydroxyethyl] piperazine-N'-[2-ethanesulfonic acid]/NaOH, 500 mM NaCl, pH 7.8 at 25° C.) and DMSO is added so that the total volume in each vial is 3.2 mL. 70 μL, 50 μL, 35 μL and 25 μL of inhibitor from assay vial 1 is placed into the first four wells of a 96-well microtiter plate and each well is made up to 90 μL total volume with the addition of a 25% DMSO/buffer solution. […]
# The 96-well microtiter plate is placed into a Microplate Reader #89815A spectrophotometer and 110 μL of the enzyme solution (prepared as follows: a mixture of 20 mL of buffer solution and 20 mg of bovine serum albumen is gently vortexed in a scintillation vial and 5 μL HLE stock solution (1 mg/mL dissolved in deionized water) is added) is added simultaneously to each of the 16 wells. Each of the solutions in the wells is throughly mixed and then the time-dependent absorbance data is collected at an absorbance of 410 nm until the assay is complete. […]
# A plot of the absorbance versus time data thus obtained affords progress curves the final slope of which is equal to the final steady-state velocities (VF). […]
row,Compound,Ki [nM]
1,"CC(C)CCC1C(=O)N(c2c(F)c(F)nc(F)c2F)S(=O)(=O)N1C (centres unmarked) [2(h), 2-(2,3,5,6-tetrafluoro-4-pyridyl)-5-methyl-4-(3-methylbutyl)-1,2,5-thiadiazolidin-3-one 1,1-dioxide]",> 100
2,"CCCC1C(=O)N(c2c(F)c(F)nc(F)c2F)S(=O)(=O)N1C (centres unmarked) [Example 1(g), 2-(2,3,5,6-tetrafluoro-4-pyridyl)-5-methyl-4-propyl-1,2,5-thiadiazolidin-3-one 1,1-dioxide]",10
